Measurements from PubChem BioAssay (NCI).
Values joined by “and” are separate entries in the source; they are usually repeats but may differ in a detail not shown here. Identical values can stand only once.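 Interpolation was linear, between the two tested concentrations surrounding the appropriate level; five concentrations were tested over 48 hours in 96-well plates. Here, GI50 denotes the concentration required for 50% inhibition of growth. Definition used: TGI = concentration required for complete inhibition of growth.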

Assays:
Assay in all cases: growth of human tumour cells (NCI), 48 h
[1] = tested on: SNB-75 CNS
[2] = tested on: MCF7 breast
[3] = tested on: SK-MEL-2 melanoma
[4] = tested on: HS 578T breast
[5] = tested on: IGROV1 ovarian
[6] = tested on: TK-10 renal
[7] = tested on: T-47D breast
[8] = tested on: OVCAR-3 ovarian
[9] = tested on: HCT-15 colon
[10] = tested on: NCI-H23 lung

| SMILES | GI50 [1] | TGI [1] [µM] | GI50 [2] | TGI [2] | GI50 [3] | TGI [3] | GI50 [4] | TGI [4] [µM] | GI50 [5] | TGI [5] [µM] | GI50 [6] | TGI [6] [µM] | GI50 [7] [µM] | TGI [7] | GI50 [8] [µM] | TGI [8] | GI50 [9] | TGI [9] | GI50 [10] | TGI [10] |
| --- | --- | --- | --- | --- | --- | --- | --- | --- | --- | --- | --- | --- | --- | --- | --- | --- | --- | --- | --- | --- |
| OC(COc1cccc2ccccc12)CN1CCN(c2ccccc2)CC1 (stereo not drawn) | 13.7 µM | 27.2 | 17.3 µM | 31.9 µM | 16.2 µM | 30.6 µM | 15.8 µM | 47.3 | 14.6 µM | 29.5 | 13.6 µM | 26.9 | 17.3 | 34.7 µM | 15.1 | 28.8 µM | 18.8 µM | 35.7 µM | 15.9 µM | 31.9 µM |
| CN(C)CCCNc1nccc(-c2c(-c3ccc(F)cc3)nn3cc(C(F)(F)F)ccc23)n1 | 5.97 µM | > 16.9 | 7.77 µM | > 18.2 µM | 5.33 µM | 14.2 µM | 7.7 µM | > 25 | 10.2 µM | > 25 | 12.9 µM | > 25 | 12.5 | > 25 µM | 8.88 | > 25 µM | 7.26 µM | > 25 µM | > 25 µM | > 25 µM |
| CNC(C)C(=O)N[C@H](C(=O)N1CCC[C@@H]1CN(CCc1ccccc1)C(=O)C(F)(F)F)[C@H](C)OCC#CC#CCO[C@H](C)[C@H](NC(=O)[C@H](C)NC)C(=O)N1CCC[C@H]1CN(CCc1ccccc1)C(=O)C(F)(F)F (stereo partly drawn) | < 0.037 µM | 0.764 | 0.239 µM | 1.76 µM | < 0.01 µM | 1.41 µM | 1.55 µM | 3.65 | 2.13 µM | 4.38 | 2.22 µM | 3.8 | 1.64 | 3.3 µM | 1.42 | 2.86 µM | 1.76 µM | 3.75 µM | 1.16 µM | 2.68 µM |
| CCCN(CCC)CCCNC(=O)c1cc2c(-c3ccc(OC)c(OC)c3)nn(C)c2s1 | 12.3 µM | 40.5 | 18.2 µM | 42.1 µM | 25.2 µM | 72.9 µM | 22.9 µM | > 100 | 43.3 µM | > 100 | 40.9 µM | > 100 | 27.5 | 98.7 µM | 21.5 | > 100 µM | 25 µM | > 100 µM | 58 µM | > 100 µM |
| COC(=O)Nc1nc2cc3c(cc2s1)OCCO3 | > 50 µM | > 50 | > 50 µM | > 50 µM | > 50 µM | > 50 µM | > 50 µM | > 50 | > 50 µM | > 50 | > 50 µM | > 50 | > 50 | > 50 µM | > 50 | > 50 µM | > 50 µM | > 50 µM | > 50 µM | > 50 µM |
| COc1cc(C2CC(c3cc(C)ccc3C)=NN2c2ccc(S(=O)(=O)NC(=O)NCc3ccccc3)cc2)cc(OC)c1OC (stereo not drawn) | 2.33 µM | 9.32 | 2.58 µM | 9.56 µM | 2.81 µM | 6.25 µM | 2.68 µM | 7.67 | 3.95 µM | 19.8 | 4.74 µM | 31 | 4.19 | 30.1 µM | 2.42 | 5.4 µM | 3.18 µM | > 100 µM | 3.37 µM | 19.5 µM |
| O=C(CCCc1ccccn1)c1ccccc1 | – | > 100 | – | > 100 µM | – | > 100 µM | – | > 100 | – | > 100 | – | > 100 | – | > 100 µM | – | > 100 µM | – | > 100 µM | – | > 100 µM |
| C=CCN(/C=C1\C(=O)O[C@H](COC)[C@@]2(C)C1=C(O)C(=O)C1=C2[C@H](OC(C)=O)C[C@]2(C)C(=O)CC[C@@H]12)CC=C | 0.291 µM and 0.0327 µM | – | 0.186 µM and 0.257 µM | 5.95 µM and 22.8 µM | 3.67 µM and 1.48 µM | 20 µM and 8.33 µM | 0.173 µM and 0.025 µM | – | 0.145 µM and 0.206 µM | – | 0.128 µM and 0.437 µM | – | – | 20 µM and > 100 µM | – | 20 µM and 4.16 µM | 2.62 µM and 0.787 µM | 20 µM and > 100 µM | 8.94 µM and 2.69 µM | 20 µM and > 100 µM |
| CCCCN(CCCC)CCCN=c1nc2c(c(N)n1-c1ccccc1)c(=S)n(-c1ccccc1)c(=S)n2-c1ccccc1 | 0.719 µM | 2.11 | 0.361 µM | 1.51 µM | 1.74 µM | 3.47 µM | 0.78 µM | 3.16 | 1.9 µM | 3.79 | 1.28 µM | 2.69 | 1.73 | 3.79 µM | 0.997 | 2.3 µM | 0.309 µM | 1.14 µM | 1.88 µM | 3.97 µM |
| Cc1nc(/N=C(\N)NC(=O)Nc2ccccc2Cl)sc1C | 0.226 µM | 0.91 | 0.359 µM | > 100 µM | 0.571 µM | 16.4 µM | 0.548 µM | 5.55 | 0.528 µM | > 100 | 1.84 µM | 6.41 | 0.519 | > 100 µM | 0.299 | 1.28 µM | 0.25 µM | > 100 µM | 0.687 µM | > 74.9 µM |
| COc1ccc(/C=C/c2cc(N3CCOCC3)c3cc(F)c(F)cc3n2)cc1OC | 1.06 µM | 6.63 | 0.389 µM | 9.48 µM | 2.39 µM | 11.5 µM | 2.37 µM | 28.8 | 0.968 µM | 9.67 | 1.14 µM | 10.2 | 0.449 | 5.69 µM | 0.351 | 2.26 µM | 0.392 µM | 12 µM | 1.12 µM | 6.11 µM |
| O=C(c1cccs1)c1c(C(F)(F)F)n([O-])c2ccc(F)cc2[n+]1=O | 1.47 µM | 2.82 | 0.454 µM | 3.12 µM | 0.841 µM | 2.37 µM | 1.67 µM | 6.71 | 0.279 µM | 1.49 | 1.41 µM | 3.06 | 0.69 | 3.23 µM | 0.793 | 2.35 µM | 0.435 µM | 1.64 µM | 1.22 µM | 2.6 µM |
| CCN(CC)C(=S)SC1CCOP(=O)(N(CCCl)CCCl)N1C (stereo not drawn) | – | > 100 | – | > 100 µM | – | 45.3 µM | – | > 100 | – | > 53.1 | – | > 100 | – | > 100 µM | – | > 100 µM | – | 91.5 µM | – | > 100 µM |
| Cc1cc(-c2nc(-c3ccc(OC(F)(F)F)cc3)no2)nn1Cc1ccnc(N2CCN(C3CC3)CC2)c1 | > 59.6 µM | > 100 | – | > 42.7 µM | > 42.1 µM | > 100 µM | > 38.4 µM | > 72.6 | > 50 µM | > 100 | 11.2 µM | > 100 | 1.03 | > 100 µM | 10.3 | > 100 µM | 3.84 µM | > 62 µM | < 0.01 µM | > 86.3 µM |
| O=C(O)CCCCn1cnc2c(=S)nc[nH]c21 | – | > 100 | – | > 100 µM | – | > 100 µM | – | > 100 | – | > 100 | – | > 100 | – | > 100 µM | – | > 100 µM | – | > 100 µM | – | > 100 µM |
| N#Cc1c(-c2ccccc2)cc(-c2ccccc2)n(CCCCC(=O)NO)c1=O | 1.61 µM | 9.07 | 1.79 µM | 11 µM | 3.21 µM | 14.1 µM | 2.03 µM | 8.18 | 2.48 µM | 9.34 | 2.5 µM | 11.2 | 1.93 | 7.99 µM | 2.26 | 7.49 µM | 0.57 µM | 13.6 µM | 2.4 µM | 6.94 µM |
| COc1ccc(-c2cc(/C=C3\C(=O)Nc4ccc(OC)cc43)[nH]n2)cc1 | 3.19 µM | 25.5 | 0.732 µM | > 100 µM | 43.5 µM | > 100 µM | 16.8 µM | > 100 | > 100 µM | > 100 | > 100 µM | > 100 | > 100 | > 100 µM | 68.9 | > 100 µM | 0.687 µM | > 100 µM | > 100 µM | > 100 µM |
| CC(=O)OC[C@]12CC[C@@H]([C@@H](C)C(N)=O)[C@@H]1[C@H]1CC[C@@H]3[C@@]4(C)CC[C@H](OC(C)=O)C(C)(C)[C@@H]4CC[C@@]3(C)[C@]1(C)CC2 | 5.59 µM | 44.6 | 3.27 µM | 12.4 µM | 10.8 µM | 27.5 µM | 12.4 µM | 38.6 | 13.2 µM | 30 | 14.7 µM | 39.8 | 2.91 | 12.9 µM | 3.95 | 13.3 µM | 4.04 µM | 15.3 µM | 9.42 µM | 33.6 µM |
| COc1c(CNC(=O)CCl)cc2[nH]c(C)cc2c1CNC(=O)CCl | 6.43 µM | 33 | 2.81 µM | 20.9 µM | 11 µM | 41.6 µM | 4.97 µM | 76.8 | 3.49 µM | > 100 | 9.17 µM | 56.7 | 3.55 | 23.1 µM | 3.41 | 13 µM | 14.9 µM | > 100 µM | 7.14 µM | 31.3 µM |
